# Test results from patent US9096832B2, “Differentiation of human embryonic stem cells” (LifeScan, Inc., priority 2007, dated 2015).
# Experiments:
# H9P44 cells = test: Definitive endoderm on MEFs: growth factor combinations in low serum (FACS CXCR4, RT-PCR; Table V); format: cell-based, human; conditions: H9P44 on MEF, Day 3, normalized to Group 1 (control)
# Procedure: H9P44 cells were plated onto 6 well plates previously coated with mitomycin treated mouse embryonic fibroblasts (MEF). Cells were grown until 70 to 80% confluency in ES cell medium consisting of DMEM/F12 (Invitrogen/GIBCO) supplemented with 20% knockout serum replacement, 100 nM MEM nonessential amino acids, 0.5 mM beta-mercaptoethanol, 2 mM L-glutamine (all from Invitrogen/GIBCO) and 8 ng/ml human basic fibroblast growth factor (bFGF) (R&D Systems).
# Growth factors were added to increasing concentration of FBS in a stepwise manner as indicated in the following regimen: • Day 0: 0% FBS in DMEM/F12 • Day 1: 0.5% FBS in DMEM/F12 • Day 2: 2% FBS in DMEM/F12. • Day 3: Cells were harvested for FACS analysis and RT-PCR.
# All growth factors were purchased from R&D Systems, MN. A detailed description and concentration of growth factors for each treatment group is shown below. • 1. Control—No growth factor added • 2. […] IL-4 (10 ng/ml) • 10. SDF1a (20 ng/ml) • 11. […] BMP2 (100 ng/ml)+BMP-4 (100 ng.ml)+BMP-6 (100 ng/ml)+BMP-7 (100 ng/ml) • 13.
# Cells were harvested on Day 3 of DE protocol treatment. For analysis, an aliquot of treated cells was used for RNA preparation for RT-PCR and the rest of cells used for FACS analysis.
# For RT-PCR analysis, cells were analyzed for expression of selected panel of definitive endoderm markers.
# [1] = test system: H9P49 embryonic stem cells; test: Pancreatic endoderm under feeder-free conditions: retinoic acid analogues (real-time PCR); format: cell-based, human
# Procedure: At day 5, cells were collected for evaluation by FACS and real-time PCR. […] The resulting definitive endoderm cells at day 5 were exposed to the following media conditions to induce pancreatic endoderm formation: culturing in DMEM/F12 media supplemented with 2% FBS and 1 μM all-trans retinoic acid (RA) (Catalog#R2625, Sigma, MO), or 0.1-10 μM AM-580 (4-[(5,6,7,8-Tetrahydro-5,5,8,8-tetramethyl-2-naphthalenyl)carboxamido]benzoic acid, Catalog#A8843, Sigma, MO), or 0.1-1 μM TTNPB (4-[(E)-2-(5,6,7,8-Tetrahydro-5,5,8,8-tetramethyl-2-naphthalenyl)-1-propenyl]benzoic acid Arotinoid acid, Catalog#T3757, Sigma, MO) for 3 days. AM-580 and TTNPB are retinoic acid analogs with affinity for retinoic acid receptors. RA treatment was followed by additional three day treatment in DMEM/F 12 media supplemented with 2% FBS and 20-50 ng/ml bFGF (Catalog#F0291, Sigma, MO).
# [2] = test system: human embryonic stem cell line H9; conditions: activin A or retinoic acid alone
# Procedure: Cultures were harvested and samples of mRNA were collected for analysis.
# Cells seeded on 0.1% Matrigel (BD) coated dishes were fixed with 4% paraformaldheyde for 20 min at room temperature. Fixed cells were blocked for 1 h at room temperature with PBS/0.1%BSA/10% normal chick serum /0.5% Triton X-100 and then incubated overnight with primary antibodies in PBS/0.1%BSA/10% normal chick serum at 4° C. After three washes in PBS/0.1% BSA, fluorescent secondary antibodies at a 1:100 dilution in PBS were incubated with cells for 1 h at room temperature to allow binding. Control samples included reactions where the primary antibody was omitted or where the primary antibody was replaced with corresponding matched negative control immunoglobulins at the same concentration as the primary antibodies. […]
# Real-time PCR amplification and quantitative analysis: Unless otherwise stated, all reagents were purchased from Applied Biosystems. […] For each primer/probe set, a Ct value was determined as the cycle number at which the fluorescence intensity reached a specific value in the middle of the exponential region of amplification. Relative gene expression levels were calculated using the comparative Ct method. […] The normalized amount of target was calculated as 2-ΔCt, assuming amplification to be 100% efficiency. […]
# [3] = test system: human embryonic stem cell line H9; test: Formation of pancreatic endocrine cells with gamma-secretase inhibitor L-685,458 (PCR); format: cell-based
# Procedure: After this time interval, the cells were then treated for six days with combinations of retinoic acid and FGF as outlined in Example 2, then the culture medium was removed and replaced with medium comprising DMEM/F12 with 2% FBS, containing the γ-secretase inhibitors L-685,458 at 10 μM for three days.
# Final data were expressed relative to a calibrator sample.
# [4] = test system: H9P46-P48 embryonic stem cells; test: Definitive endoderm on […]: effect of GSK-3B inhibitor IX (FACS CXCR4, PCR); format: cell-based, human; conditions: day 5
# Procedure: In order to confirm that the effect of Wnt-3a was through the Wnt pathway, a GSK-3 inhibitor was used to activate the downstream targets of Wnt, such as beta catenin. […] FIG. 29, panel a depicts the expression of CXCR4 by FACS at day 5 in the absence of Wnt-3a or GSK-3B inhibitor, b) +20 ng/ml Wnt-3a, c) +1000 nM GSK-3B inhibitor IX, d) +500 nM GSK-3B inhibitor IX, e) +100 nM GSK-3B inhibitor IX, f) +10 nM GSK-3B inhibitor IX, g) +100 nM GSK-3B inhibitor IX for days 1-2, and h) +10 nM GSK-3B inhibitor IX for days 1-2.
# [5] = test system: human embryonic stem cell line H1 at passage 55; test: Definitive endoderm on human serum coated plates (real-time PCR); format: cell-based; conditions: with activin A, vs activin A only
# Procedure: Cultures of the human embryonic stem cell line H1 at passage 55 were grown and differentiated on human serum (Sigma, #H1388, MO) coated plates. 0.5 ml of human serum was added to each well of 6 well tissue culture treated dish, incubated for 1 hr at room temperature, and aspirated before adding human embryonic stem cells. […] These findings parallel our findings for human embryonic stem cells cultured on […]™ or human fibronectin coated plates.
# H1P54 ES cells = test: Evaluation of various GSK-3B inhibitors in DE formation (real-time PCR); format: cell-based, human; conditions: 100 nM for first two days, compared to GSK-3B inhibitor VIII and XII
# Procedure: The effectiveness of a number of commercially available GSK-3B inhibitors was evaluated in formation of DE from human embryonic stem cells. The following GSK-3B inhibitors were evaluated at 100 nM: GSK-3B inhibitor VIII (Catalog#361549, Calbiochem, CA), GSK-3B inhibitor IX (Catalog#361550, Calbiochem, CA), GSK-3B inhibitor XI (Catalog#361553, Calbiochem, CA), GSK-3B inhibitor XII (Catalog#361554, Calbiochem, CA). […] Control cultures were treated with low serum plus high dose of AA. FIG. 47, panels a and b depicts the gene expression of definitive endoderm markers at day 5. GSK-3B inhibitor IX and XI were both effective in inducing DE formation as compared to GSK-3B inhibitor VIII and XII.
# [6] = test system: H7P44 and H9P46 embryonic stem cells; test: Definitive endoderm on […]: role of Wnt ligands (FACS CXCR4, real-time PCR); format: cell-based, human; conditions: low serum+AA+/-Wnt ligands, H7 and H9, five days
# Procedure: In some of the cultures 20 ng/ml Wnt-3a (Catalog#1324-WN-002, R&D Systems, MN), 20 ng/ml Wnt-5a (Catalog#654-WN-010, R&D Systems, MN), 25 ng/ml Wnt-7a (Catalog#3008-WN-025, R&D Systems, MN), or 25 ng/ml Wnt-5b (Catalog#3006-WN-025, R&D Systems, MN) was added throughout the five day treatment. FIG. 24 depicts phase contrast images of H9P46 definitive endoderm culture in the presence of high concentration of (a) AA or (b) AA+20 ng/ml Wnt-3a. FIG. 25 depicts the expression of CXCR4 by FACS at day 5 for H7P44, and H9P46 lines cultured on […]™ (1:30 dilution) and exposed to the DE protocol+Wnt-3a (FIG. 25, panels b and d) and −Wnt-3a (FIG. 25, panels a and c).
# [7] = test system: pancreatic endoderm cells derived from human embryonic stem cells; test: Passage and expansion of pancreatic endoderm cells in culture with FGF10 (Q-PCR); format: cell-based; conditions: 50 ng/ml FGF10, 6 day culture period
# Procedure: The low serum DMEM/F12 contained 0% (v/v) fetal bovine serum (FBS) on day 1, 0.5% (v/v) FBS on day two and 2% (v/v) FBS on each day thereafter. After four days of differentiation, the cells were cultured in low serum DMEM/F12 contained 2% (v/v) FBS, 1 μM retinoic acid and 50 ng/ml bFGF for a total of six more days. After the six days of differentiation, the cells were maintained in culture in low serum DMEM/F12 contained 2% (v/v) FBS in the presence of 50 ng/ml FGF10 for a total of 6 days. During the six-day culture period, the pancreatic endoderm cells were passaged twice and cell population-doubling time is about 36 to 48 hours during this 6-day culture. On days 0, 3, and 6 of culture, Q-PCR was used to measure the expression of marker genes indicative of pancreatic endoderm.
molecule,measurement,setting,value
Group 9: IL-4 (10 ng/ml),CXCR4 relative expression,H9P44 cells,1.4
same,Goosecoid relative expression,H9P44 cells,0.9
same,HNF-3B relative expression,H9P44 cells,0.89
same,Oct-4 relative expression,H9P44 cells,0.85
same,SOX-2 relative expression,H9P44 cells,1.2
same,Sox17 relative expression,H9P44 cells,1
"CC1=C(/C=C/C(C)=C/C=C/C(C)=C/C(=O)O)C(C)(C)CCC1 [retinoic acid, all-trans retinoic acid]","foregut endoderm markers, such as CDX-2 and AFP",[1]; 1 μM RA followed by bFGF,robust expression
same,"pancreatic endoderm markers, such as PDX-1",[1]; 1 μM RA followed by bFGF,significantly upregulates
same,expression of Pdx1,[2],did not induce
"CC(C)C[C@H](NC(=O)[C@H](Cc1ccccc1)C[C@@H](O)[C@H](Cc1ccccc1)NC(=O)OC(C)(C)C)C(=O)N[C@@H](Cc1ccccc1)C(N)=O [L-685,458]",NeuroD1 expression,"[3]; L-685,458 10 μM",increased further
same,expression of Hes-1,"[3]; L-685,458 10 μM",decrease
same,time of maximal inhibition of Hes-1 expression,"[3]; L-685,458 10 μM",day three post treatment
same,Ngn3 expression relative to activin A alone or retinoic acid with FGFs,"[3]; L-685,458 10 μM for three days",approximately 50 fold
same,increase of insulin expression,"[3]; L-685,458 10 μM for three days",70 fold
O=C1Nc2cc(Br)ccc2/C1=C1/Nc2ccccc2/C1=N\O [GSK-3B inhibitor IX],number of CXCR4 positive cells,[4]; 20 ng/ml Wnt-3a or 100-1000 nM GSK-3B inhibitor,significantly increased
same,expression of CXCR4 by FACS,[4]; 10 nm GSK-3B inhibitor,very low
same,expression of definitive endoderm markers,[5],Robust expression
same,inducing DE formation,H1P54 ES cells,effective
O=C1NC(=O)C(c2cn(CCCO)c3ncccc23)=C1c1cnccn1 [GSK-3B inhibitor XI],inducing DE formation,H1P54 ES cells,effective
"CC1(C)CCC(C)(C)c2cc(C(=O)Nc3ccc(C(=O)O)cc3)ccc21 [AM-580, 4-[(5,6,7,8-Tetrahydro-5,5,8,8-tetramethyl-2-naphthalenyl)carboxamido]benzoic acid]",AFP and CDX-2 expression,[1]; 10 μM AM-580,suppressed
same,expression of PDX-1,[1]; 10 μM AM-580,maintaining a high expression
"Wnt-7a: Wnt ligand, Catalog#3008-WN-025, R&D Systems (protein, UniProt O00755 32-349, looked up) Protein Wnt-7a: LGASIICNKIPGLAPRQRAICQSRPDAIIVIGEGSQMGLDECQFQFRNGRWNCSALGERTVFGKELKVGSREAAFTYAIIAAGVAHAITAACTQGNLSDCGCDKEKQGQYHRDEGWKWGGCSADIRYGIGFAKVFVDAREIKQNARTLMNLHNNEAGRKILEENMKLECKCHGVSGSCTTKTCWTTLPQFRELGYVLKDKYNEAVHVEPVRASRNKRPTFLKIKKPLSYRKPMDTDLVYIEKSPNYCEEDPVTGSVGTQGRACNKTAPQASGCDLMCCGRGYNTHQYARVWQCNCKFHWCCYVKCNTCSERTEMYTCK",expression of definitive endoderm markers (real-time PCR),[6],minimal impact
"Wnt-5b: Wnt ligand, Catalog#3006-WN-025, R&D Systems (protein, UniProt Q9H1J7 18-359, looked up) Protein Wnt-5b: QLLTDANSWWSLALNPVQRPEMFIIGAQPVCSQLPGLSPGQRKLCQLYQEHMAYIGEGAKTGIKECQHQFRQRRWNCSTADNASVFGRVMQIGSRETAFTHAVSAAGVVNAISRACREGELSTCGCSRTARPKDLPRDWLWGGCGDNVEYGYRFAKEFVDAREREKNFAKGSEEQGRVLMNLQNNEAGRRAVYKMADVACKCHGVSGSCSLKTCWLQLAEFRKVGDRLKEKYDSAAAMRVTRKGRLELVNSRFTQPTPEDLVYVDPSPDYCLRNESTGSLGTQGRLCNKTSEGMDGCELMCCGRGYNQFKSVQVERCHCKFHWCCFVRCKKCTEIVDQYICK",expression of definitive endoderm markers (real-time PCR),[6],minimal impact
"Group 2: Activin A (100 ng/ml) (protein, UniProt P08476 311-426, looked up) Inhibin beta A chain: GLECDGKVNICCKKQFFVSFKDIGWNDWIIAPSGYHANYCEGECPSHIAGTSGSSLSFHSTVINHYRMRGHSPFANLKSCCVPTKLRPMSMLYYDDGQNIIKKDIQNMIVEECGCS",CXCR4 relative expression,H9P44 cells,19.5
same,Goosecoid relative expression,H9P44 cells,2.8
same,HNF-3B relative expression,H9P44 cells,0.64
same,Oct-4 relative expression,H9P44 cells,1.1
same,SOX-2 relative expression,H9P44 cells,0.91
same,Sox17 relative expression,H9P44 cells,45
"Wnt 5a: Wnt ligand, Catalog#654-WN-010, R&D Systems (protein, UniProt P22725 62-380, looked up) Protein Wnt-5a: IIGAQPLCSQLAGLSQGQKKLCHLYQDHMQYIGEGAKTGIKECQYQFRHRRWNCSTVDNTSVFGRVMQIGSRETAFTYAVSAAGVVNAMSRACREGELSTCGCSRAARPKDLPRDWLWGGCGDNIDYGYRFAKEFVDARERERIHAKGSYESARILMNLHNNEAGRRTVYNLADVACKCHGVSGSCSLKTCWLQLADFRKVGDALKEKYDSAAAMRLNSRGKLVQVNSRFNSPTTQDLVYIDPSPDYCVRNESTGSLGTQGRLCNKTSEGMDGCELMCCGRGYDQFKTVQTERCHCKFHWCCYVKCKKCTEIVDQFVCK",expression of definitive endoderm markers (real-time PCR),[6],minimal impact
"FGF10: fibroblast growth factor FGF10, 50 ng/ml (protein, UniProt O15520 38-208, looked up) Fibroblast growth factor 10: QALGQDMVSPEATNSSSSSFSSPSSAGRHVRSYNHLQGDVRWRKLFSFTKYFLKIEKNGKVSGTKKENCPYSILEITSVEIGVVAVKAINSNYYLAMNKKGKLYGSKEFNNDCKLKERIEENGYNTYASFNWQHNGRQMYVALNGKGAPRRGQKTRRKNTSAHFLPMVVHS",expression of pancreatic endoderm marker Pdx1,[7],maintained expression
